Test results as given in ChEMBL document CHEMBL2331399, “Purification and characterization of carbonic anhydrase from sheep kidney and effects of sulfonamides on enzyme activity” (Bioorg Med Chem, 2013).

Experiment: Inhibition of sheep kidney esterase activity of carbonic anhydrase using 4-nitrophenylacetate as substrate after 3 mins by spectrophotometric analysis
Parameters: species or system Ovis aries

Row | Structure (SMILES) | Ki [µM]
1 | NS(=O)(=O)c1ccc2ccccc2c1 | 2.59
2 | NS(=O)(=O)c1ccccc1 [BENZENESULFONAMIDE] | 8.66
3 | NS(=O)(=O)c1ccccc1Br | 5.87
4 | Nc1ccc(S(N)(=O)=O)cc1 [SULFANILAMIDE] | 69.3
5 | Cc1ccc(S(N)(=O)=O)cc1 [P-TOLUENESULFONAMIDE] | 1.35
